Measurements reported in US20080306230A1, “Composition and Associated Method” (GENERAL ELECTRIC COMPANY, priority 2007, published 2008).

Assay: Solubility of the product as observed
Type: physicochemical
Settings: in words; water or methanol
Experimental: 5-norbornene-2-methanol (CAS 95-12-5, 1 gram) and sodium hydride (NaH, 60% dispersion in mineral oil, 0.6 grams) are dissolved in 50 milliliters of anhydrous THF. The mixture is refluxed overnight at 80 degrees C. After refluxing, 1,3-propane sultone (CAS 1120-71-4, 0.98 grams) in 20 milliliters of THF is added to the mixture in 10 minutes. After 5 hours, the solvent is removed by rotary evaporation and the reaction product is purified by column chromatography using silica and ethyl acetate/methanol (4:1) as eluent. […] The product yield is about 60 weight percent.
A ruthenium metal complex 1,3-bis(2,4,6-trimethylphenyl)-2-imidazolidinylidene)dichloro(phenylmethylene)(tricyclohexylphosphine)ruthenium (CAS No. 246047-72-3, 5 milligrams) is charged in a HPLC flask and the flask is degassed and purged with argon three times. Methylene chloride (CH2Cl2, 50 microliters) is injected into the flask using a syringe. The metal complex solution is cooled at −78 degrees Celsius in a dry ice and acetone bath. Norbornene sulfonate (10 milligrams, Sample 1 from Example 1) is charged into a second flask and degassed and the flask is backfilled with argon three times. Degassed methanol (500 microliters) is added to norbornene sulfonate using a syringe. The resulting mixture is also cooled at −78 degrees Celsius. […]

solubility: soluble in water or methanol
Structure (SMILES): O=S(=O)([O-])C1CC2C=CC1C2.[Na+] (stereo not shown) [Sample 1, norbornene-sodium sulfonate]
